Test results: patent US20080064871A1, “Production Method of Nitrogen-Containing Fused Ring Compounds” (Japan Tobacco Inc., priority 2006, published 2008)

What was measured:
human URAT1 = biological target: T1, human URAT1 (Homo sapiens, UniProt Q96S37); assay: Uric acid transport inhibitory test using human URAT1-expressing cells; type: cell-based; details: human URAT1 expressing HEK293 cells, uptake of 14C-labeled uric acid for 5 min, room temperature; read-out: hURAT1 (IC50, concentration necessary for inhibiting the uric acid transport rate by 50%)
T1 construct: Human URAT1 full length cDNA was subcloned to expression vector pcDNA3.1; expressed in transfected cells; host or cells: HEK293 cells (pcDNA3.1, geneticin-selected)
T1 sequence (Q96S37 1-553): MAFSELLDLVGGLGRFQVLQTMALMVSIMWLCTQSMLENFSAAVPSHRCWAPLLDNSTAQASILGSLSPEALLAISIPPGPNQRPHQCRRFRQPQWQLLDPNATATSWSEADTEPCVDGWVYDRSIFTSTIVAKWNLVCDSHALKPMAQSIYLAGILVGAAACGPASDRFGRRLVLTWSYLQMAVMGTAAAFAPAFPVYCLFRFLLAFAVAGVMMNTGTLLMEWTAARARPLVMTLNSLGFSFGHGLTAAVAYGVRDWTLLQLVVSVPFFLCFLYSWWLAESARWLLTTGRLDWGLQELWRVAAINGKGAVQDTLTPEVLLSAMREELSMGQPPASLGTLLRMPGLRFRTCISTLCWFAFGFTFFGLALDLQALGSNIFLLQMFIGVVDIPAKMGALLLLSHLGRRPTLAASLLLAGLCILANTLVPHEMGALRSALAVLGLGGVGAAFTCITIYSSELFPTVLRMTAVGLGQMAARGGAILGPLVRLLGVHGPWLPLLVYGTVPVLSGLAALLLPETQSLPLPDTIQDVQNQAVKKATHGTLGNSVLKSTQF
From the text: Reference Experimental Example 1 Uric Acid Transport Inhibitory Test Using Human Urat1-Expressing Cells
Human URAT1 full length cDNA was subcloned to expression vector pcDNA3.1 and human URAT1 gene was transfected into human embryonic kidney derived cell line (HEK293 cells) by liposome method using Lipofectamine2000. Simultaneously, HEK293 cells transfected with expression vector pcDNA3.1 alone (hereinafter mock cells) were also produced. HEK293 cells expressing human URAT1 gene or mock cells were selected with geneticin resistance as an index. The functional expression of human URAT1 gene was confirmed by a method similar to the following method, using transport of uric acid labeled with ^14C into the cells as an index.
Human URAT1 expressing HEK293 cells or mock cells were cultured in Dulbecco's modified Eagle's MEM medium (high glucose) containing 10% fetal bovine serum, 0.5 mg/mL geneticin sulfate, 100 units/mL penicillin and 100 μg/mL streptomycin under the conditions of 37° C. and 5% CO2 in an incubator. The cells were plated in a 96 well plate (poly-D-Lysine coated) at 1×10^5 cells/well and the following uric acid transport inhibitory test was performed 24 hr later. This test was performed at room temperature.
After the medium was removed by aspiration from each well, the cells were washed once with Hank's Balanced Salt Solution (HBSS) and preincubated with HBSS ([…]) for 5 min. HBSS was aspirated and an assay buffer (wherein NaCl in the above-mentioned HBSS had been substituted with Na-gluconate) containing various concentrations of the Example compound and a radioactive ligand (uric acid labeled with 14C; final concentration […]) was added to each well at […] and an uptake reaction was carried out for 5 min. After the reaction, the cells were washed twice with ice-cold HBSS ([…]), and Microscin ti TM 20 (PerkinElmer) was added at […]. The cells were lysed by stirring and the radioactivity of each well was measured in a liquid scintillation counter (TOP COUNT, Packard).
The uric acid transport rate (%) of the Example compound at each concentration was calculated relative to the radioactivity (difference in radioactivity between human URAT1 expressing HEK293 cells and mock cells without addition of Example compound (DMSO addition)) showing URAT1 specific uric acid transport as 100%, and the concentration (IC50) of the Example compound necessary for inhibiting the uric acid transport rate by 50% was determined. In Table-Table, “+++” means IC50 value of less than 100 nM, “++” means IC50 value of 100 nM to less than 1000 nM, and “+” means IC50 value of 1000 nM to less than 3000 nM.

CYP2C9 = biological target: T2, CYP2C9 (Homo sapiens, UniProt P11712); assay: CYP inhibitory test using human liver microsome; type: in vitro ADME; details: human liver microsomes, pH 7.4, probe diclofenac, model substrate diclofenac, 37° C. 10 min, LC/MS/MS, read-out: CYP2C9 inhibition IC50
T2 construct: Human liver microsome (20 mg protein/mL, 5 μL, Xenotech LLC, purchased from Lenexa Kans.); tissue Xenotech LLC; host or cells: human liver microsome
Procedure: Reference Experimental Example 2 Cyp Inhibitory Test Using Human Liver Microsome
Human liver microsome (20 mg protein/mL, 5 μL, Xenotech LLC, purchased from Lenexa Kans.) was suspended in 100 mM potassium phosphate buffer (70 μL, pH 7.4), mixed with a solution (0.5 μL) of the Example compound dissolved in DMSO and preincubated at 37° C. for 5 min. NADPH producing system coenzyme solution (β-nicotinamide adenine dinucleotide phosphate: 5.2 mM, D-glucose-6-phosphate: 13.2 mM, magnesium chloride: 13.2 mM, glucose-6-phosphate dehydrogenase: 1.8 U/mL) 25 μL, and a model substrate (CYP3A4: midazolam 1 mM, CYP2D6: bufuralol 1 mM, CYP2C9: diclofenac 2 mM) 0.5 μL dissolved in DMSO were added to start the reaction. After incubation at 37° C. for 10 min., acetonitrile (200 μL) containing an internal standard substance (propranolol 1 μM) was added and the mixture was centrifuged (room temperature, 3000 rpm, 20 min). The amount of the metabolite produced from each model substrate in the supernatant was measured by high performance liquid chromatography/mass spectrometry (LC/MS/MS) and each CYP enzyme activity was determined. The concentration showing 50% inhibition (IC50) was calculated relative to the enzyme activity without addition of Example compound (DMSO 0.5 μL added) as 100%.

T2 sequence (P11712 whole entry): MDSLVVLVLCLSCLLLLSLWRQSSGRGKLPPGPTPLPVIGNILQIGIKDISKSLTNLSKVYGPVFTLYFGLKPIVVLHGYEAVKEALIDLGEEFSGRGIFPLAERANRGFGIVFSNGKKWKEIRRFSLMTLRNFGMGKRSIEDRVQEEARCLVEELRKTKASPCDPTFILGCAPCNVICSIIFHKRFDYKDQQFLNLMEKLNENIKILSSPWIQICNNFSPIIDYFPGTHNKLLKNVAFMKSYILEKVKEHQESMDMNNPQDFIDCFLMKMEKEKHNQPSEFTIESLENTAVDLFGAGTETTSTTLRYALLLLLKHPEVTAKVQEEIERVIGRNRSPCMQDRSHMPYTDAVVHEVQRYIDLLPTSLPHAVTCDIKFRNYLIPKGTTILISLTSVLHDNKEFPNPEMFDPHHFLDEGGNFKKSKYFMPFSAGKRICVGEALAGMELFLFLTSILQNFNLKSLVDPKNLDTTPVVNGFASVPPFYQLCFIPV

Row | Compound | IC50 (human URAT1) [µM] | IC50 at 10 min (CYP2C9) [µM]
1 | O=C(c1cc(Cl)c(O)c(Cl)c1)N1CCOc2ccc(C(F)(F)F)cc21 [Example 85, (3,5-dichloro-4-hydroxyphenyl)-(6-trifluoromethyl-2,3-dihydrobenzo[1,4]oxazin-4-yl)-methanone] | < 0.1 | –
2 | O=C(c1cc(Cl)c(O)c(Cl)c1)N1CCOc2c(O)cccc21 [Example 90, (3,5-dichloro-4-hydroxyphenyl)-(8-hydroxy-2,3-dihydrobenzo[1,4]oxazin-4-yl)-methanone] | 0.1 to 1 | –
3 | O=C(c1ccc(O)c([N+](=O)[O-])c1)N1CCOc2ccccc21 [Example 75, (2,3-dihydrobenzo[1,4]oxazin-4-yl)-(4-hydroxy-3-nitrophenyl)-methanone] | 0.1 to 1 | –
4 | COc1c(Cl)cc(C(=O)N2CCOc3ccccc32)cc1Cl [Example 86, (3,5-dichloro-4-methoxyphenyl)-(2,3-dihydrobenzo[1,4]oxazin-4-yl)-methanone] | 1 to 3 | –

Other lines, results leading:

Row | IC50 (human URAT1) [µM] | IC50 at 10 min (CYP2C9) [µM] | Compound
5 | 0.1 to 1 | 6 | O=C(c1cc(Cl)c(O)c(Cl)c1)N1CCCOc2ccccc21 [Example 94]
6 | 0.1 to 1 | – | Nc1ccc2c(c1)CCN2C(=O)c1cc(Cl)c(O)c(Cl)c1 [Example 78, (5-amino-2,3-dihydroindol-1-yl)-(3,5-dichloro-4-hydroxyphenyl)-methanone]
7 | 0.1 to 1 | – | CN1CCN(C(=O)c2cc(Cl)c(O)c(Cl)c2)c2ccccc21 [Example 74, (3,5-dichloro-4-hydroxyphenyl)-(4-methyl-3,4-dihydro-2H-quinoxalin-1-yl)-methanone]
8 | 0.1 to 1 | – | CC(=O)Oc1c(Cl)cc(C(=O)N2CCOc3ccccc32)cc1Cl [Example 87, 2,6-dichloro-4-(2,3-dihydrobenzo[1,4]oxazine-4-carbonyl)-phenyl acetate]
9 | 0.1 to 1 | – | CC(=O)N1CCN(C(=O)c2cc(Cl)c(O)c(Cl)c2)c2ccccc21 [Example 73, 1-[4-(3,5-dichloro-4-hydroxybenzoyl)-3,4-dihydro-2H-quinoxalin-1-yl]-ethanone]
